Data published in patent US4081548A, “Antibiotics” (Merck & Co., Inc., priority 1976, dated 1978).

Tests used:
Type in all cases: cell-based
Bacillus subtilis 964 = experiment: Bauer-Kirby disc diffusion (2 mm agar depth), zone of inhibition, Table 1; details: preparation III, 6.6 μg antibiotic/disc, strain resistance: --, read-out: diameter of the zone of inhibition
From the text: (§1) Thienamycin is further characterized by the following antibiotic spectrum profile. The test employs the Bauer-Kirby disc diffusion method modified only in respect to the 2 mm. agar depth employed here.

[1] = system: Enterobacter cloacae 2646; experiment: as above; details: preparation III, 6.6 μg antibiotic/disc, strain resistance: P, C (penicillins, cephalosporins), read-out: diameter of the zone of inhibition
From the text: as §1

[2] = system: Enterobacter cloacae 2647; experiment: as above; details: preparation III, 6.6 μg antibiotic/disc, strain resistance: --, read-out: diameter of the zone of inhibition
From the text: as §1

Escherichia coli 2017 = experiment: as above; details: preparation III, 6.6 μg antibiotic/disc, strain resistance: --, read-out: diameter of the zone of inhibition
From the text: as §1

Escherichia coli 2482 = experiment: as above; details: preparation III, 6.6 μg antibiotic/disc, strain resistance: --, read-out: diameter of the zone of inhibition
From the text: as §1

Escherichia coli 2964 = experiment: as above; details: preparation III, 6.6 μg antibiotic/disc, strain resistance: P, C (penicillins, cephalosporins), read-out: diameter of the zone of inhibition
From the text: as §1

Klebsiella 2921 = experiment: as above; details: preparation III, 6.6 μg antibiotic/disc, strain resistance: P (penicillins), read-out: diameter of the zone of inhibition
From the text: as §1

Klebsiella 2922 = experiment: as above; details: preparation III, 6.6 μg antibiotic/disc, strain resistance: P (penicillins), read-out: diameter of the zone of inhibition
From the text: as §1

Proteus mirabilis 2830 = experiment: as above; details: preparation III, 6.6 μg antibiotic/disc, strain resistance: P, C (penicillins, cephalosporins), read-out: diameter of the zone of inhibition
From the text: as §1

Proteus morganii 2833 = experiment: as above; details: Morganella morganii, preparation III, 6.6 μg antibiotic/disc, strain resistance: P, C (penicillins, cephalosporins), read-out: diameter of the zone of inhibition
From the text: as §1

[3] = system: Pseudomonas aeruginosa 2616; experiment: as above; details: preparation III, 6.6 μg antibiotic/disc, strain resistance: P, C (penicillins, cephalosporins), read-out: diameter of the zone of inhibition
From the text: as §1

[4] = system: Pseudomonas aeruginosa 2824; experiment: as above; details: preparation III, 6.6 μg antibiotic/disc, strain resistance: P, C (penicillins, cephalosporins), read-out: diameter of the zone of inhibition
From the text: as §1

[5] = system: Pseudomonas aeruginosa 3210; experiment: as above; details: preparation III, 6.6 μg antibiotic/disc, strain resistance: P, C (penicillins, cephalosporins), read-out: diameter of the zone of inhibition
From the text: as §1

Serratia 2840 = experiment: as above; details: preparation III, 6.6 μg antibiotic/disc, strain resistance: P, C (penicillins, cephalosporins), read-out: diameter of the zone of inhibition
From the text: as §1

[6] = system: Staphylococcus aureus 2314; experiment: as above; details: preparation III, 6.6 μg antibiotic/disc, strain resistance: P (penicillins), read-out: diameter of the zone of inhibition
From the text: as §1

[7] = system: Staphylococcus aureus 2985; experiment: as above; details: preparation III, 6.6 μg antibiotic/disc, strain resistance: --, read-out: diameter of the zone of inhibition
From the text: as §1

[8] = system: Streptococcus faecalis 755; experiment: as above; details: Enterococcus faecalis, preparation III, 6.6 μg antibiotic/disc, strain resistance: --, read-out: diameter of the zone of inhibition
From the text: as §1

[9] = system: Staphylococcus aureus ATCC 6538P; experiment: disc-diffusion assay of antibacterial activity (5 ml plates); details: estimated or calculated potency; one unit = same inhibition as 1 μg. of cephalothin/ml.
Protocol: Assays of antibacterial activity are run according to the following disc-diffusion procedure unless otherwise indicated. The assay plates are prepared in the following manner. An overnight growth of the assay organism, Staphylococcus aureus ATCC 6538P, in nutrient broth plus 0.2% yeast extract is diluted with nutrient broth plus 0.2% yeast extract to a suspension having 55% transmittance at a wavelength of 660 mμ. This suspension is added to Difco nutrient agar supplemented with 2.0 g./l. Difco yeast extract, at 47° C. to 48° C., to make a composition containing 33.2 ml. of the suspension per liter of agar. Five ml. of this suspension is poured into petri dishes of 85 mm. diameter, and these plates are chilled and held at 4° C. until used (5 day maximum).
Samples of the antibiotic to be assayed are diluted to an appropriate concentration in phosphate buffer at pH 7. Filter-paper discs, 0.5-inch in diameter, are dipped into the test solution and placed on the surface of the assay plate; two discs for each sample are normally placed on one plate opposite to one another. The plates are incubated overnight at 37° C. and the zone of inhibition is measured as mm. diameter. The zone of inhibition measured in mm. determines relative potencies or, when compared with a purified reference standard such as cephalothin, the potency of antibiotic in units/ml. The unit of activity reported in Examples 4 through 7 is based on cephalothin standard solutions of 8, 4, 2 and 1 μg./ml. One unit is defined as the amount which calculates to produce the same inhibition as 1 μg. of cephalothin/ml. that zone of inhibition being between 16 and 21 mm. diameter.

C[C@@H](O)[C@H]1C(=O)N2C(C(=O)O)=C(SCCN)C[C@H]12 [III, thienamycin]
zone of inhibition at 6.6 µg/disc (Bacillus subtilis 964): 46 mm | zone of inhibition at 6.6 µg/disc [1]: 25 mm | zone of inhibition at 6.6 µg/disc [2]: 27.5 mm | zone of inhibition at 6.6 µg/disc (Escherichia coli 2017): 28 mm | zone of inhibition at 6.6 µg/disc (Escherichia coli 2482): 27 mm | zone of inhibition at 6.6 µg/disc (Escherichia coli 2964): 27 mm | zone of inhibition at 6.6 µg/disc (Klebsiella 2921): 25 mm | zone of inhibition at 6.6 µg/disc (Klebsiella 2922): 25 mm | zone of inhibition at 6.6 µg/disc (Proteus mirabilis 2830): 21 mm | zone of inhibition at 6.6 µg/disc (Proteus morganii 2833): 20 mm | zone of inhibition at 6.6 µg/disc [3]: 20.5 mm | zone of inhibition at 6.6 µg/disc [4]: 30 mm | zone of inhibition at 6.6 µg/disc [5]: 25 mm | zone of inhibition at 6.6 µg/disc (Serratia 2840): 23 mm | zone of inhibition at 6.6 µg/disc [6]: 38 mm | zone of inhibition at 6.6 µg/disc [7]: 38 mm | zone of inhibition at 6.6 µg/disc [8]: 24 mm | potency (estimated / calculated) [9]: ~31,000 units/mg.
